The target of the first assay is Human VPS34 (Homo sapiens (Human), UniProt Q8NEB9). The assay can be described thus: Human VPS34 enzyme assay (Adapta TR-FRET). The conditions noted are these: compound concentration 1.11 μM; read-out: Percent Inhibition. The class given is biochemical.
Chain of Human VPS34 (Q8NEB9 whole entry): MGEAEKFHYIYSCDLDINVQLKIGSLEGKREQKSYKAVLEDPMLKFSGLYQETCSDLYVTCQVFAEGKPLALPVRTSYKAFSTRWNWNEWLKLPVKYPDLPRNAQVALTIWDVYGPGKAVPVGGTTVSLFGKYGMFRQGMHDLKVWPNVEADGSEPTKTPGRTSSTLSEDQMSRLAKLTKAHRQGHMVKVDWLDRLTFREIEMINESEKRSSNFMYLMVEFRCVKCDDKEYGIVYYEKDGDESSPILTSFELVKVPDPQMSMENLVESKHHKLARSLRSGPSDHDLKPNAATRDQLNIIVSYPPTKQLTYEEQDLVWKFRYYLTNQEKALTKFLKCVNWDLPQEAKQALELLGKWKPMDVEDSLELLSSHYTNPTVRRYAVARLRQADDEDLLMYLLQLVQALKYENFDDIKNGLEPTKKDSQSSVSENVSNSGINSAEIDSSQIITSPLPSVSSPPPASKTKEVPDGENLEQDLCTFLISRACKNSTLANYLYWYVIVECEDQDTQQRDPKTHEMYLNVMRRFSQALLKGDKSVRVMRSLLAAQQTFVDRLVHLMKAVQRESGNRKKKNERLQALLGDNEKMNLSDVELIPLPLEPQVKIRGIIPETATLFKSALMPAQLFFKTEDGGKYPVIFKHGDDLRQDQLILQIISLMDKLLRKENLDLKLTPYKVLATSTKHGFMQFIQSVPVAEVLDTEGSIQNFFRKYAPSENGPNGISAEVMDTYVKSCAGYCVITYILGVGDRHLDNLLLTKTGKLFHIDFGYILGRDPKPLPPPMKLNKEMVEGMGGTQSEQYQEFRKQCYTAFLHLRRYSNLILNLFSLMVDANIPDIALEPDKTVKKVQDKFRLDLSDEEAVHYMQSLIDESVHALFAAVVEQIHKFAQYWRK
`CC(=O)Nc1cc(-c2cnc3[nH]cc(S(=O)(=O)N4CCCC4)c3c2)ccn1` [Compound I-158, N-{4-[3-(pyrrolidin-1-ylsulfonyl)-1H-pyrrolo[2,3-b]pyridin-5-yl]pyridin-2-yl}acetamide]: the inhibition at 1.11 µM was more than 99%.

Turning to `COc1cc(F)c(S(=O)(=O)Nc2cc(-c3ccnc(NC(C)=O)c3)cnc2C)cc1F` [Compound I-159, N-(5-{[(2,5-difluoro-4-methoxyphenyl)sulfonyl]amino}-6-methyl-3,4′-bipyridin-2′-yl)acetamide], the inhibition at 1.11 µM is more than 99%.

For the compound `CNc1ncc(-c2ccnc(NC(C)=O)c2)cc1C(=O)NC12CC(C1)C2` [Compound I-160, 2′-acetamido-N-(bicyclo[1.1.1]pent-1-yl)-6-(methylamino)-3,4′-bipyridine-5-carboxamide], the inhibition at 1.11 µM is more than 99%.

Consider `CC(=O)Nc1cc(-c2cnc(C)c(NS(=O)(=O)c3ccc(F)cc3F)c2)c(F)cn1` [Compound I-161, N-(5-{[(2,4-difluorophenyl)sulfonyl]amino}-5′-fluoro-6-methyl-3,4′-bipyridin-2′-yl)acetamide], for which the inhibition at 1.11 µM was more than 99%.

As for `CC(=O)Nc1cc(-c2cnc(N(C)C)c(C(=O)N(C)C)c2)ccn1` [Compound I-162, 2′-acetamido-6-(dimethylamino)-N,N-dimethyl-3,4′-bipyridine-5-carboxamide], the inhibition at 1.11 µM is more than 99%.

Consider `COc1ccc(S(=O)(=O)Nc2cc(-c3ccnc(NC(C)=O)c3)cnc2C)c(F)c1` [Compound I-163, N-(5-{[(2-fluoro-4-methoxyphenyl)sulfonyl]amino}-6-methyl-3,4′-bipyridin-2′-yl)acetamide], for which the inhibition at 1.11 µM is more than 99%.

With `CC(=O)Nc1cc(-c2cnc(F)c(NS(=O)(=O)c3ccc(F)cc3F)c2)ccn1` [Compound I-164, N-(5-{[(2,4-difluorophenyl)sulfonyl]amino}-6-fluoro-3,4′-bipyridin-2′-yl)acetamide], the inhibition at 1.11 µM was more than 99%.

As to `COc1ccc(S(=O)(=O)Nc2cc(-c3ccnc(NC(C)=O)c3)cnc2C)cc1` [Compound I-165, N-(5-{[(4-methoxyphenyl)sulfonyl]amino}-6-methyl-3,4′-bipyridin-2′-yl)acetamide], the inhibition at 1.11 µM is more than 99%.

Turning to `CN(C)S(=O)(=O)c1cc(-c2ccnc(Nc3ncco3)c2)cnc1N` [Compound I-166, 6-amino-N,N-dimethyl-2′-(1,3-oxazol-2-ylamino)-3,4′-bipyridine-5-sulfonamide], the inhibition at 1.11 µM is more than 99%.

With `CC(=O)Nc1cc(-c2cnc(C)c(NS(C)(=O)=O)c2)ccn1` [Compound I-167, N-{6-methyl-5-[(methylsulfonyl)amino]-3,4′-bipyridin-2′-yl}acetamide], the inhibition at 1.11 µM is more than 99%.

As for `CC(=O)Nc1cc(-c2cnc(C)c(NS(=O)(=O)c3cccc(C(F)(F)F)c3)c2)ccn1` [Compound I-168, N-[6-methyl-5-({[3-(trifluoromethyl)phenyl]sulfonyl}amino)-3,4′-bipyridin-2′-yl]acetamide], the inhibition at 1.11 µM was more than 99%.

In the case of `CC(=O)Nc1cc(-c2cnc(N)c(C(=O)NC3CC3)c2)ccn1` [Compound I-169, 2′-acetamido-6-amino-N-cyclopropyl-3,4′-bipyridine-5-carboxamide], the inhibition at 1.11 µM is more than 99%.

Turning to `CC(=O)Nc1cc(-c2cnc(N)c(S(=O)(=O)Nc3ccc(F)cc3F)c2)ccn1` [Compound I-170, N-{6-amino-5-[(2,4-difluorophenyl)sulfamoyl]-3,4′-bipyridin-2′-yl}acetamide], the inhibition at 1.11 µM was more than 99%.

In the case of `COC(=O)Nc1cc(-c2cnc(N)c(S(=O)(=O)N(C)C)c2)ccn1` [Compound I-171, Methyl [6-amino-5-(dimethylsulfamoyl)-3,4′-bipyridin-2′-yl]carbamate], the inhibition at 1.11 µM is more than 99%.

Regarding `CNc1ncc(-c2ccnc(NC(C)=O)c2)cc1S(=O)(=O)N(C(C)C)C(C)C` [Compound I-173, N-[5-(diisopropylsulfamoyl)-6-(methylamino)-3,4′-bipyridin-2′-yl]acetamide], the inhibition at 1.11 µM is more than 99%.

For `CC(=O)Nc1cc(-c2cnc(N(C)C)c(C(=O)N(C)c3ccc(F)cc3F)c2)ccn1` [Compound I-174, 2′-Acetamido-N-(2,4-difluorophenyl)-6-(dimethylamino)-N-methyl-[3,4′-bipyridine]-5-carboxamide], the inhibition at 1.11 µM is more than 99%.

For the compound `CC(=O)Nc1cc(-c2cnc(N)c(S(=O)(=O)C(C)C)c2)ccn1` [Compound I-175, N-[6-amino-5-(isopropylsulfonyl)-3,4′-bipyridin-2′-yl]acetamide], the inhibition at 1.11 µM was more than 99%.

Take `CC(=O)Nc1cc(-c2cnc3[nH]cc(S(=O)(=O)c4ccccc4)c3c2)ccn1` [Compound I-176, N-{4-[3-(phenylsulfonyl)-1H-pyrrolo[2,3-b]pyridin-5-yl]pyridin-2-yl}acetamide]: the inhibition at 1.11 µM is more than 99%.

On to `CC(=O)Nc1cc(-c2cnc(C)c(NS(=O)(=O)c3ccc(F)cc3F)c2)c(C)cn1` [Compound I-177, N-(5-{[(2,4-difluorophenyl)sulfonyl]amino}-5′,6-dimethyl-3,4′-bipyridin-2′-yl)acetamide], for which the inhibition at 1.11 µM was more than 99%.

With `CC(=O)Nc1cc(-c2cnc(C)c(NS(=O)(=O)c3cc(C)ccc3C)c2)ccn1` [Compound I-178, N-(5-{[(2,5-dimethylphenyl)sulfonyl]amino}-6-methyl-3,4′-bipyridin-2′-yl)acetamide], the inhibition at 1.11 µM is more than 99%.

Regarding `CC(=O)Nc1cc(-c2cnc(N)c(C(=O)Nc3cccc(F)c3F)c2)ccn1` [Compound I-179, 2′-acetamido-6-amino-N-(2,3-difluorophenyl)-3,4′-bipyridine-5-carboxamide], the inhibition at 1.11 µM is more than 99%.

As for `COC(=O)Nc1cc(-c2cncc(C(=O)C3CC3)c2)ccn1` [Compound I-180, methyl[5-(cyclopropylcarbonyl)-3,4′-bipyridin-2′-yl]carbamate], the inhibition at 1.11 µM was more than 99%.

Regarding `CC(=O)Nc1cc(-c2cnc(N)c(N3CCCS3(=O)=O)c2)ccn1` [Compound I-181, N-[6-amino-5-(1,1-dioxidoisothiazolidin-2-yl)-3,4′-bipyridin-2′-yl]acetamide], the inhibition at 1.11 µM was more than 99%.

On to `CC(=O)Nc1cc(-c2cnc(C)c(NS(=O)(=O)c3ccc(C)cc3F)c2)ccn1` [Compound I-182, N-(5-{[(2-fluoro-4-methylphenyl)sulfonyl]amino}-6-methyl-3,4′-bipyridin-2′-yl)acetamide], for which the inhibition at 1.11 µM was more than 99%.

Take `CC(=O)Nc1cc(-c2cnc(N)c(S(=O)(=O)NCC3CCCCC3)c2)ccn1` [Compound I-183, N-{6-amino-5-[(cyclohexylmethyl)sulfamoyl]-3,4′-bipyridin-2′-yl}acetamide]: the inhibition at 1.11 µM is more than 99%.

On to `CC(=O)Nc1cc(-c2cncc(C=O)c2)ccn1` [Compound I-184, N-(5-formyl-3,4′-bipyridin-2′-yl)acetamide], for which the inhibition at 1.11 µM is 74%.

Regarding `CC(=O)Nc1cc(-c2cnc(C)c(NS(=O)(=O)c3ccc(F)cc3)c2)ccn1` [Compound I-185, N-(5-{[(4-fluorophenyl)sulfonyl]amino}-6-methyl-3,4′-bipyridin-2′-yl)acetamide], the inhibition at 1.11 µM is more than 99%.

The assay is the same for the next values; noted with them: read-out: Percent Inhibition.
As to `CC(=O)Nc1cc(-c2cnc(N)c(S(=O)(=O)Cc3ccccc3Cl)c2)ccn1` [Compound I-172, N-{6-amino-5-[(2-chlorobenzyl)sulfonyl]-3,4′-bipyridin-2′-yl}acetamide], the inhibition at 1.11 µM is more than 99%.

The term inhibition denotes the relative decrease from the control value, in per cent.

The values above are taken from patent US9802960B2 (MILLENNIUM PHARMACEUTICALS, INC., priority 2014, dated 2017).
